According to US20210127673A1, “HERBICIDES” (SYNGENTA PARTICIPATIONS AG, priority 2016, published 2021):

How the values were obtained:
Format in all cases: in vivo
Conditions in all cases: 1000 g/ha, evaluated after 13 days
[1] = tested on: Setaria faberi (SETFA); assay: Pre-emergence herbicidal activity, Setaria faberi
Method in brief: (§1)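 Seeds sown in standard soil in pots, grown one day in a glasshouse (24/16 °C day/night, 14 h light, 65% humidity), then sprayed pre-emergence with compound in acetone/water (50:50) containing 0.5% Tween 20. Plants were scored after 13 days on a 0–5 scale (5 = total damage, 0 = none).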

[2] = tested on: Lolium perenne (LOLPE); assay: Post-emergence herbicidal activity, Lolium perenne
Method in brief: (§2)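 Scores (0 no damage to 5 total damage) read 13 d after spraying. Plants sprayed post-emergence 8 d after sowing; spray solution acetone/water 50:50 with 0.5% Tween 20. Growth at 24/16 °C day/night, 14 h light, 65% RH, twice-daily watering.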

[3] = tested on: Triticum aestivium (TRZAW); assay: Post-emergence herbicidal activity, Triticum aestivium; set-up: key: 5=total damage to plant; 0=no damage to plant
Method in brief: as §2

[4] = tested on: Lolium perenne (LOLPE); assay: Pre-emergence herbicidal activity, Lolium perenne; set-up: key: 5=total damage to plant; 0=no damage to plant
Method in brief: as §1

[5] = tested on: Alopecurus myosuroides (ALOMY); assay: Pre-emergence herbicidal activity, Alopecurus myosuroides; set-up: key: 5=total damage to plant; 0=no damage to plant
Method in brief: as §1

[6] = tested on: Avena fatua (AVEFA); assay: Pre-emergence herbicidal activity, Avena fatua; set-up: key: 5=total damage to plant; 0=no damage to plant
Method in brief: as §1

[7] = tested on: Alopecurus myosuroides (ALOMY); assay: Post-emergence herbicidal activity, Alopecurus myosuroides; set-up: key: 5=total damage to plant; 0=no damage to plant
Method in brief: as §2

[8] = tested on: Setaria faberi (SETFA); assay: Post-emergence herbicidal activity, Setaria faberi; set-up: key: 5=total damage to plant; 0=no damage to plant
Method in brief: as §2

[9] = tested on: Avena fatua (AVEFA); assay: Post-emergence herbicidal activity, Avena fatua
Method in brief: as §2

[10] = tested on: Echinochloa crus-galli (ECHCG); assay: Post-emergence herbicidal activity, Echinochloa crus-galli; set-up: key: 5=total damage to plant; 0=no damage to plant
Method in brief: as §2

[11] = tested on: Echinochloa crus-galli (ECHCG); assay: Pre-emergence herbicidal activity, Echinochloa crus-galli
Method in brief: as §1

[12] = tested on: Triticum aestivium (TRZAW); assay: Pre-emergence herbicidal activity, Triticum aestivium; set-up: key: 5=total damage to plant; 0=no damage to plant
Method in brief: as §1

SMILES	Control of SETFA after pre-emergence application (score 0-5) [1]	Control of LOLPE after post-emergence application (score 0-5) [2]	Control of TRAZW after post-emergence application (score 0-5) [3]	Control of LOLPE after pre-emergence application (score 0-5) [4]	Control of ALOMY after pre-emergence application (score 0-5) [5]	Control of AVEFA after pre-emergence application (score 0-5) [6]	Control of ALOMY after post-emergence application (score 0-5) [7]	Control of SETFA after post-emergence application (score 0-5) [8]	Control of AVEFA after post-emergence application (score 0-5) [9]	Control of ECHCG after post-emergence application (score 0-5) [10]	Control of ECHCG after pre-emergence application (score 0-5) [11]	Control of TRAZW after pre-emergence application (score 0-5) [12]
O=C(Nc1ccc(-c2cncc(F)c2)nc1C(F)(F)F)OCc1ccccc1 [Compound B53]	4	2	1	1	0	1	1	5	4	5	2	0
O=C(Nc1ccc(-c2cncc(F)c2)nc1C(F)(F)F)N1CCSCC1 [Compound B54]	3	3	1	1	0	2	1	4	4	4	3	0
O=C(Nc1ccc(-c2cncnc2)nc1C(F)(F)F)N1CCOCC1 [Compound B55]	1	1	0	0	0	1	0	4	2	3	1	0
CCC(C)OC(=O)Nc1ccc(-c2cncc(F)c2)nc1C(F)(F)F (stereo not drawn) [Compound B56]	2	3	0	0	0	1	0	4	3	4	1	0
O=C(Nc1ccc(-c2cncc(F)c2)nc1C(F)(F)F)OCC(F)(F)F [Compound B57]	3	2	0	1	0	1	0	3	3	4	2	0
CCCCOC(=O)Nc1ccc(-c2cncc(F)c2)nc1C(F)(F)F [Compound B58]	2	2	0	1	0	1	0	5	2	3	2	0
COCCOC(=O)Nc1ccc(-c2cncc(F)c2)nc1C(F)(F)F [Compound B59]	3	3	1	2	1	2	1	4	3	5	4	0
COCCNC(=O)Nc1ccc(-c2cncc(F)c2)nc1C(F)(F)F [Compound B60]	2	2	1	1	0	1	1	5	2	5	4	0
C#CCOC(=O)Nc1ccc(-c2cncc(F)c2)nc1C(F)(F)F [Compound B61]	2	2	0	1	1	2	1	4	2	4	3	0
N#CCCOC(=O)Nc1ccc(-c2cncc(F)c2)nc1C(F)(F)F [Compound B62]	3	2	0	1	1	2	0	4	3	5	3	0
O=C(Nc1ccc(-c2cncc(F)c2)nc1C(F)(F)F)N1CCCC1 [Compound B63]	2	2	0	0	1	0	0	3	2	5	2	0
O=C1NCCN1c1ccc(-c2cncc(F)c2)nc1C(F)(F)F [Compound B64]	2	1	0	0	0	0	0	4	3	4	1	0
